Data from patent US11466024B2, “Bicylic compound acting as an inhibitor” (CHIA TAI TIANQING PHARMACEUTICAL GROUP CO., LTD., priority 2017, dated 2022).

Experiments:
[1] = system: imiquimod-induced psoriasis; assay: In vivo pharmacodynamic study in imiquimod (IMQ)-induced psoriasis model in mice; design: species or system C57BL/6 mice; details: for Clinical scores (Mean ± SEM, n = 8): 75 mg/kg
Experimental: 6- to 8-week old female C57BL/6 mice were selected, depilated on the backs, and sensitized two days later except for the sham operation group. On the day of sensitization, the mice were randomly divided into the following 6 groups (8 mice per group). Group I was a sham operation group; Group II was a vehicle control group and PBS was administered; Group III was a positive control group and 5 mg/kg methotrexate was administered; Groups IV, V and VI were ip treatment group, ig treatment group, and topical treatment group of the compound of Example 1, and 75 mg/kg of the compound of Example 1 was administered via intraperitoneal injection, intragastric administration, and dorsal application, respectively. Administration was started on the day of sensitization, once daily for Group III and twice daily for Groups IV to VI. On the day of sensitization, the mice in Groups II to VI were given 60 to 80 mg of imiquimod cream (5%) on the dorsal skin for 4 consecutive days. (Please refer to Bouchaud, G., et al., Epidermal IL-15Ralpha acts as an endogenous antagonist of psoriasiform inflammation in mouse and man. J. Exp. Med., 2013. 210(10): p. 2105-17.)
The mice were weighed daily from the day of sensitization, and the skin scales, induration, and erythema were observed and scored according to a four-grade scoring method: 0 point, no disease; 1 point, mild; 2 points, moderate; 3 points, severe; and 4 points, very severe. (Please refer to Qin, S., et al., Endogenous n-3 polyunsaturated fatty acids protect against imiquimod-induced psoriasis-like inflammation via the IL-17/IL-23 axis. Mol Med Rep, 2014. 9(6): p. 2097-104.)

[2] = molecular target: T1, RORC2-LBD (Homo sapiens, UniProt P51449); assay: In vitro test for inhibitory activity on RORγ: TR-FRET screening (RORC2-LBD / SRC1 peptide interaction); type: biochemical; details: Value of the concentration required for 50% inhibition (EC50) of RORγ, 15 nM RORc-LBD, 200 nM SRC1 peptide, 4° C. overnight
T1 sequence (P51449 269-508 limits assumed): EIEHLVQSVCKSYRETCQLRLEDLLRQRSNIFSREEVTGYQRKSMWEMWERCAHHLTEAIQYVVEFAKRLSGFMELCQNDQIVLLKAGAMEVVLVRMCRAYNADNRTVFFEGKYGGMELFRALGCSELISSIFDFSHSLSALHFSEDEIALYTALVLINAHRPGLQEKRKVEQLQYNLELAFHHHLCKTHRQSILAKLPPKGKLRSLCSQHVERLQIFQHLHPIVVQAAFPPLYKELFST
Description: The compounds of the present application was able to regulate (inhibit) the bioactivity of the nuclear receptor RORγ, and the strength of this regulatory (inhibitory) effect could be evaluated by a TR-FRET (time-resolved fluorescence resonance energy transfer) screening system. Nuclear receptor cofactors (co-activators and co-inhibitors) could regulate the transcription of a target gene by the interaction with nuclear receptors. If a ligand (test compound) affected the interaction between the nuclear receptors and the cofactors, this ligand (test compound) was able to regulate the transcription of the corresponding gene.
This method adopted the TR-FRET (time-resolved fluorescence resonance energy transfer) technique to determine the ability of a compound to regulate the interaction between the polypeptide indirectly bound to APC […] (namely, APC was indirectly bound to the polypeptide by binding to Streptavidin and biotin) and RORC2-LBD linked to a europium (Eu)-labeled anti-His antibody (Perkin Elmer #AD0111). In the absence of the compound, RORC2 could bind to an APC-modified polypeptide. If the compound was an agonist, it could enhance the interaction between RORC2 and the APC-modified polypeptide after binding to RORC2. On the contrary, if the compound was an inverse agonist, it could inhibit the interaction between RORC2 and the APC-modified polypeptide after binding to RORC2. When the APC-modified polypeptide and the Eu-labeled anti-His antibody-RORC2-LBD complex approached to each other and the distance therebetween was within a certain distance, energy transfer could occur and a TR-FRET signal was generated.
A buffer solution comprising 50 mM Tris (pH 7.0), 50 mM KCl, 1 mM Na-EDTA, 0.01% BSA (0.1 mg/ml), and 0.1 mM DTT was freshly formulated prior to the experiment.
2.3 Formulation of a RORγ-containing working solution. Prior to the test, a working solution containing 1.67 nM Eu/anti-His and 0.75 μl/well of SF9 cell lysate was freshly formulated, and was placed on ice before use. 25.05 nM of RORγ was added to the working solution.
2.5 Ten concentration gradients were set for each test compound, and duplicate wells were set for each concentration. The formulating method of the test compounds was as follows: […]
2) 15 μl of the RORγ-containing working solution was added to columns 1 to 21 of the tested 384-well plate (the final concentration of Eu/anti-His was 1 nM, and the final concentration of RORg was 15 nM); and […]
9) data analysis was performed using the ratio of the numerical value detected at an emission wavelength of 665 nm to the numerical value detected at an emission wavelength of 615 nm. […]

SMILES: CCS(=O)(=O)c1ccc(CNC(=O)c2cc3c(s2)C(C(C)C)N(C[C@H]2CC[C@H](C(F)(F)F)CC2)C3)nc1 (single isomer, unassigned) [Example 1]
- effect on reducing the clinical scores compared with 5 mg/kg of methotrexate ([1]; 75 mg/kg by intraperitoneal injection, intragastric administration and dorsal application, FIG. 5): equivalent
- effect on the clinical scores (skin scales, induration) ([1]; 75 mg/kg by intraperitoneal injection, intragastric administration and dorsal application, p<0.01, FIG. 5): reduce the clinical scores significantly
- Clinical scores (Mean ± SEM, n = 8) ([1]; ig, Day 1): 0 ± 0
- Clinical scores (Mean ± SEM, n = 8) ([1]; ig, Day 2): 0.31 ± 0.13
- Clinical scores (Mean ± SEM, n = 8) ([1]; ig, Day 3): 0.50 ± 0.19
- Clinical scores (Mean ± SEM, n = 8) ([1]; ig, Day 4): 1.29 ± 0.21
- Clinical scores (Mean ± SEM, n = 8) ([1]; ig, Day 5): 1.64 ± 0.18
- Clinical scores (Mean ± SEM, n = 8) ([1]; ip, Day 1): 0 ± 0
- Clinical scores (Mean ± SEM, n = 8) ([1]; ip, Day 2): 0.25 ± 0.13
- Clinical scores (Mean ± SEM, n = 8) ([1]; ip, Day 3): 0.50 ± 0.16
- Clinical scores (Mean ± SEM, n = 8) ([1]; ip, Day 4): 1.25 ± 0.19
- Clinical scores (Mean ± SEM, n = 8) ([1]; ip, Day 5): 1.81 ± 0.25
- Clinical scores (Mean ± SEM, n = 8) ([1]; topical, Day 1): 0 ± 0
- Clinical scores (Mean ± SEM, n = 8) ([1]; topical, Day 2): 0.25 ± 0.13
- Clinical scores (Mean ± SEM, n = 8) ([1]; topical, Day 3): 0.44 ± 0.15
- Clinical scores (Mean ± SEM, n = 8) ([1]; topical, Day 4): 0.94 ± 0.24
- Clinical scores (Mean ± SEM, n = 8) ([1]; topical, Day 5): 1.43 ± 0.20
- EC50 [2]: < 100 nM
